Data set [1] can be described thus: Toxicity (LD50), intraperitoneal administration, mongrel white mice, Burns method. The class given is in vivo, mouse. The note with it: mice; for LD50: mouse, in vivo, ip, intraperitoneal, I, II, III as emulsion in 10% aqueous Tween-80, IV, Ftorafur, 5-fluorouracyl as aqueous solutions; for less toxic than 5-fluorouracyl, fold: relative to 5-fluorouracyl. The text has this:
Toxicity of the compounds according to the present invention has been determined on mongrel white mice in experimental intraperitoneal administration of these compounds and evaluated by the Burns method (using curves of accumulation of the animal death frequencies vs. dose).
As the toxicity characteristic use was made of the dose causing death of 50% of the animals employed for the experiment (LD50).
For the determination of toxicity of (1,3-bis-(2,2,5,5-tetramethyl-1-oxyl-Δ^3 -pyrrolin-3-oyl)-5-fluorouracyl(compound I), 1-(2,2,5,5-tetramethyl-1-oxyl-Δ^3 -pyrrolin-3-oyl)-5-fluorouracyl (compound II) and 3-(2,2,5,5-tetramethyl-1-oxyl-Δ^3 -pyrrolin-3-oyl)-5-fluorouracyl (compound III), these compounds were administered intraperitoneally in the form of an emulsion in a 10% aqueous solution of polyoxyethylsorbitan monooleate (Tween-80, Ferak Berlin West Germany).
For the determination of toxicity of sodium salt of 3-(2,2,5,5-tetramethyl-1-oxyl-Δ^3 -pyrrolin-3-oyl)-5-fluorouracyl (compound IV), Ftorafur and 5-fluorouracyl, these compounds were also administered intraperitoneally in the form of aqueous solutions.

For data set [2], the system named is leukemia La. Kind of data set: Antitumor activity on grafted leukemia La in mice (ELS, kinetic criterion, chemotherapeutic index). It counts as in vivo, mouse. The note with it: for ELS (extension of average life span) / kinetic criterion (.chi.) = 1-.phi.t/.phi.c / Chemotherapeutic index I40 = LD10/ED40: La, C57Bl mice; for Chemotherapeutic index I40 = LD10/ED40: i/p. From the text:
(§1) For the determination of antitumor activity these compounds (I, II, III, IV), 5-fluorouracyl and Ftorafur were used in the same solvents as in the determination of toxicity.
(§2) The determination of antitumor activity was effected on grafted tumors of mice: leukemia L-1210, leukemia P-388, Leukemia La, melanoma B-16, adenocarcinoma 755 (Ca-755), as well as on grafted tumors of rats: Schwetz erythroleukosis, Walker carcinosarcoma (WCS), Geren carcinoma.
Leukemia La was grafted intraperitoneally using a suspension of leukemic cells in a physiological solution. The inoculum contained 10^8 of leukemia cells. […]
In the determination of the antitumor activity the test compounds were introduced in equitoxic doses.
The criterion of the antitumor activity for leukemia P-338, L-1210 and La is the extension of an average life span (ELS) of the test animals as compared to the control ones, expressed in percent and calculated by the formula: [formula] wherein Lt --life span of animals in the test group;
Lc --life span of animals in the control group, i.e. without administration of the test compounds.
The comparative assessment of the scope of therapeutic action is effected using chemotherapeutic indices I40, I60 and I100 : I40 =LD10 /ED40, I60 =LD10 /ED60 I100 =LD10 /ED100, where LD10 =dose causing death of 10% of the animals; ED40, ED60 and ED100 are effective doses causing extension of the animal's life span by 40, 60 and 100 percent respectively.

The conditions of data set [3]: background art; cited from earlier work.
For data set [4], the system named is Schwetz erythroleukosis. Kind of data set: Antitumor activity on grafted Schwetz erythroleukosis in rats. It counts as in vivo, rat. The note with it: mongrel rats, single dose 25 mg/kg i/p, days 7-14.
Source text: as §1, §2
(§3) In the determination of the antitumor activity the test compounds were introduced in equitoxic doses. Ftorafur was also used in the optimal dose which is equal to […].
(§4) As the criterion of antitumor activity on solid tumors used is the inhibition (I) of the tumor volume gain in comparison with the control, expressed in percent and calculated by the formula: [formula] wherein Vc --average volume of the tumor in the control,
(§5) Vt --average volume of the tumor in the experiment.

In data set [5] the test system is melanoma B-16. Kind of data set: Antitumor activity on grafted melanoma B-16 in mice (inhibition of tumor volume gain). The class given is in vivo, mouse. The note with it: for Inhibition of tumor volume gain: B-16, CBAF1 mice, days 1-10.
Source text: as §1, §2, §3, §4, §5

Data set [6] in a line: Solubility. It counts as physicochemical. Particulars: for solubility in organic solvents: alcohols, acetone, acetonitrile, dimethylformamide, dimethylsulphoxide; for solubility in aqueous alkalis or buffer solutions: pH above 10.
A short description of data set [7]: Stability against hydrolysis. The class given is physicochemical.
[8] abbreviates: single dose 75 mg/kg i/p, days 1-7 after grafting.
Setting [9] is: single dose 75 mg/kg i/p, days 1-7 after grafting, control life span 6,5 days.
The mark [10] stands for this setting: leukemia La, relative to Ftorafur.

Each structure is given as a SMILES string.

What is called LD50 is the dose at which mortality reaches 50%. High values mean a less toxic substance, low ones a more toxic substance. `O=c1[nH]cc(F)c(=O)[nH]1` [5-fluorouracyl, reference compound] had an LD50 in data set [1] of 100 mg/kg. Further, the “ELS (extension of average life span)” value amounted to 57% in data set [2] (single dose 25 mg/kg i/p, days 1-7, control life span 6.5 days) and 57% in data set [2] (single dose 35 mg/kg i/p, days 1,3,5,7, control life span 6,5 days). Moreover, in data set [2] (single dose 35 mg/kg i/p, days 1,3,5,7), the “kinetic criterion (.chi.) = 1-.phi.t/.phi.c” value is given as 0.67. The “Chemotherapeutic index I60 = LD10/ED60” value in data set [2] (mouse, in vivo, ip) was found to be 3.6. In addition, the “toxicity / side effects in words” value in data set [3] is “highly toxic, it strongly affects the function of bone marrow and gastro-intestinal tract”. In addition, the entries for the “Inhibition of tumor volume gain” value in data set [4] and in data set [5] (single dose 25 mg/kg i/p) were 15% and 0%, respectively. Further, in data set [5] (mouse, in vivo), the “activity on melanoma B-16, in words” value is on record as “shows no activity”.

Regarding `CC1(C)C=C(C(=O)n2cc(F)c(=O)n(C(=O)C3=CC(C)(C)N([O])C3(C)C)c2=O)C(C)(C)N1[O]` [I, 1,3-bis-(2,2,5,5-tetramethyl-1-oxyl-Δ^3-pyrrolin-3-oyl)-5-fluorouracyl], the “less toxic than 5-fluorouracyl, fold” value in data set [1] (i/p) came to 3.5 times. This molecule displayed a 50% lethal dose (LD50) in data set [1] of 350 mg/kg. Also, in data set [6], the “solubility in organic solvents” value is “wellsoluble” and the solubility in water entry is “sparingly soluble in water”. The “Chemotherapeutic index I40 = LD10/ED40” value in data set [2] (days 1-7) was 4,0. For the same molecule, in data set [2] (setting [8]), the “kinetic criterion (.chi.) = 1-.phi.t/.phi.c” value is 0,1. For the same molecule, the “ELS (extension of average life span)” value in data set [2] (setting [9]) was found to be 30%. Further, in data set [2] (leukemia La), the “kinetic criterion compared with Ftorafur, in words” value was “close values” and the “therapeutic effect compared with 5-fluorouracyl, in words” value is given as “close to 5-fluorouracyl”. Moreover, in data set [2] (setting [10]), the “effectiveness relative to Ftorafur as regards ELS, fold” value was 2 times. Moreover, the “Inhibition of tumor volume gain” value in data set [5] (single dose 75 mg/kg i/p) came out at 15%.

`CC1(C)C=C(C(=O)n2cc(F)c(=O)[nH]c2=O)C(C)(C)N1[O]` [II, 1-(2,2,5,5-tetramethyl-1-oxyl-Δ^3 pyrrolin-3-oyl)-5-fluorouracyl]: the “toxicity compared with 5-fluorouracyl, in words” value in data set [1] (i/p) is “substantially similar to that of 5-fluorouracyl”. In addition, the LD50 in data set [1] worked out at 150 mg/kg. For the same molecule, in data set [6], the “solubility in organic solvents” value is reported as “wellsoluble”, the “solubility in aqueous alkalis or buffer solutions” value was “well soluble” and the solubility in water entry is given as “sparingly soluble in water”. Besides, the “Chemotherapeutic index I40 = LD10/ED40” value in data set [2] (days 1-7) is listed as 2,0. The “kinetic criterion (.chi.) = 1-.phi.t/.phi.c” value in data set [2] (setting [8]) was 0.5. Besides, in data set [2] (setting [9]), the “ELS (extension of average life span)” value came to 45%. For the same molecule, in data set [2] (leukemia La), the “therapeutic effect compared with 5-fluorouracyl, in words” value was “similar, in these characteristics, to 5-fluorouracyl”. Also, in data set [2] (setting [10]), the “effectiveness relative to Ftorafur as regards ELS, fold” value is listed as 3 times and the “effectiveness relative to Ftorafur as regards kinetic criterion, fold” value stood at 3 times. For the same molecule, in data set [7] (to fluorouracyl and 2,2,5,5-tetramethyl-1-oxyl-Δ^3 -pyrrolin-3-carboxylic acid, rate increases with increasing pH), the “hydrolysis in aqueous solutions of alkalis” value was “rapidly hydrolyzed”.

As to `CC1(C)C=C(C(=O)n2c(=O)[nH]cc(F)c2=O)C(C)(C)N1[O]` [III, 3-(2,2,5,5-tetramethyl-1-oxyl-Δ^3-pyrrolin-3-oyl)-5-fluororacyl], in data set [1] (i/p), the “toxicity compared with Ftorafur, in words” value is reported as “approach toxicity of Ftorafur” and the “less toxic than 5-fluorouracyl, fold” value is listed as 5 times. For the same molecule, the median lethal dose (LD50) in data set [1] was found to be 550 mg/kg. For the same molecule, in data set [6], the “solubility in organic solvents” value is recorded as “wellsoluble”, the “solubility in aqueous alkalis or buffer solutions” value was “well soluble” and the solubility in water entry is recorded as “sparingly soluble in water”. Moreover, the “Chemotherapeutic index I40 = LD10/ED40” value in data set [2] (days 1-7) was 7,8. In addition, the “kinetic criterion (.chi.) = 1-.phi.t/.phi.c” value in data set [2] (single dose 65 mg/kg i/p, days 1-7) is recorded as 0,2. In data set [2] (single dose 65 mg/kg i/p, days 1-7, control life span 6,5 days), the “ELS (extension of average life span)” value was found to be 40%. Moreover, in data set [2] (leukemia La), the “kinetic criterion compared with Ftorafur, in words” value was “close values” and the “therapeutic effect compared with 5-fluorouracyl, in words” value is on record as “close to 5-fluorouracyl”. Besides, the “effectiveness relative to Ftorafur as regards ELS, fold” value in data set [2] (setting [10]) stood at 2 times. In addition, the stability against hydrolysis result in data set [7] (room temperature, pH 3 to 11, about 5 hours) is given as “do not undergo any noticeable hydrolytical decomposition”.
